The values that follow come from US9211283B2, “Nanoparticle carrier systems based on human serum albumin for photodynamic therapy” (Biolitec Pharma Marketing Ltd, priority 2009, dated 2015).

Data set [1] in a line: Singlet oxygen generation and triplet parameters. Format: physicochemical. Particulars: in ethanol.
The subject of data set [2] is Jurkat cells. Kind of data set: Dark toxicity (trypan blue test, apoptotic blebbing). It counts as cell-based. Particulars: 3 μM mTHPC, 1 h, 3 h, 5 h and 24 h incubation in darkness, FIG. 6A. The method, then:
Intracellular uptake and phototoxicity of the present nanoparticles formulation was studied using Jurkat-cell suspensions cultured in RPMI1640 medium. All cells were incubated in 3 μM mTHPC and mTHPC loaded into different concentration of HSA based nanoparticles for set period of time (1 h, 3 h, 5 h, 24 h). The HSA-based nanoparticles of varying HSA concentration was used to determine the intracellular uptake and phototoxicity effect of the cells suspension.
Trypan blue test was used to assess the necrotic cells, apoptotic cells were detected by their change of cell shape (apoptotic blebbing).
In each case Jurkat cells were incubated in five samples. After 1 h, 3 h, 5 h. and 24 h incubation in darkness an aliquot of each sample was investigated. Trypan blue test was used to assess the necrotic cells, apoptotic cells were detected by their change of cell shape (apoptotic blebbing). Little or no effect was found. In other words dark toxicity was not observed for the mTHPC concentrations used.

A short description of data set [3]: Fluorescence lifetime. It counts as physicochemical.

For `O=C([O-])c1c(Cl)c(Cl)c(Cl)c(Cl)c1-c1c2cc(I)c(=O)c(I)c-2oc2c(I)c([O-])c(I)cc12.[Na+].[Na+]` [Rose Bengal], in data set [1], the “ΦΔ (±0.03) (singlet oxygen quantum yield)” value is recorded as 0.75, the “τT (lifetime of triplet state)” value is listed as 3.3 ± 0.1 μs and the “τΔ (lifetime of singlet oxygen)” value was determined as 64.1 ± 0.2 μs.
Turning to `Oc1cccc(-c2c3nc(c(-c4cccc(O)c4)c4ccc([nH]4)c(-c4cccc(O)c4)c4nc(c(-c5cccc(O)c5)c5ccc2[nH]5)CC4)C=C3)c1` [mTHPC, 5,10,15,20-tetrakis(3-hydroxyphenyl)-chlorin], the Dark toxicity entry in data set [2] is recorded as “not observed”.
`Oc1cccc(-c2c3nc(c(-c4cccc(O)c4)c4ccc([nH]4)c(-c4cccc(O)c4)c4nc(c(-c5cccc(O)c5)c5ccc2[nH]5)C=C4)C=C3)c1` [mTHPP, 5,10,15,20-tetrakis(m-hydroxyphenyl)-porphyrin]: the “τ3 [ns] ± 0.2” value in data set [3] (fluorescence lifetime, in EtOH (monomers)) came to 9.6 ns. Moreover, the “Amplitude [%] of τ3” value in data set [3] (in EtOH) is 100%.
